From patent US9309286B2, “Compositions and methods for augmenting permeability barriers” (TUFTS MEDICAL CENTER, priority 2011, dated 2016)
Peptide text beside a SMILES is read from it.

What was measured:
[1] = test system: rats
[2] = test system: rats; assay: Evans Blue leak into lungs of rats after p38 inhibitor; settings: 1 μmol/kg

SMILES	Lung weight/body weight, peptide alone [1]	Leak of intravenously injected Evans Blue into lungs [2]
C[C@H](NC(=O)[C@H](C)NC(=O)[C@@H]1CCCN1C(=O)[C@H](C)NC(=O)CNC(=O)[C@H](CCCNC(=N)N)NC(=O)[C@H](CCCNC(=N)N)NC(=O)[C@@H](NC(=O)CNC(=O)[C@@H]1CCCN1C(=O)[C@@H](NC(=O)[C@H](CCCNC(=N)N)NC(=O)[C@H](CCCNC(=N)N)NC(=O)[C@H](C)NC(=O)[C@@H]1CCCN1C(=O)[C@H](CC(N)=O)NC(=O)[C@H](CCCNC(=N)N)NC(=O)[C@@H]1CCCN1C(=O)[C@H](Cc1c[nH]cn1)NC(=O)[C@H](C)NC(=O)[C@H](CCCNC(=N)N)NC(=O)[C@H](C)NC(=O)[C@H](CCC(N)=O)NC(=O)[C@H](CCCNC(=N)N)NC(=O)[C@H](C)NC(=O)[C@H](C)NC(=O)[C@H](C)NC(=O)[C@H](CCCNC(=N)N)NC(=O)[C@H](C)NC(=O)[C@@H](N)Cc1ccc(O)cc1)[C@@H](C)O)[C@@H](C)O)C(N)=O [MK2-activating peptide] (H-YARAAARQARAHPRNPARRTPGTRRGAPAA-NH2)	no significant effect	
C[S+]([O-])c1ccc(-c2nc(-c3ccncc3)c(-c3ccc(F)cc3)[nH]2)cc1 (centres unmarked) [SB203580]		increase in leak
